Source: patent publication US11365208B2, “Silylated derivatives of resveratrol and the use thereof in neurodegenerative, neurological or inflammatory diseases” (Consejo Superior De Investigaciones Cientificas, priority 2016, dated 2022)

What was measured:
zebrafish (Danio rerio) = experiment: PTZ-induced neurotoxicity model in zebrafish larvae, AChE activity; type: in vivo; details: 5 dpf larvae, 10 μM, 1 h pre-treatment then 6 h with 5 mM PTZ
Experimental: The objective of this assay was to analyze the protective effect of various derivatives of resveratrol in a model of neurotoxicity induced by the neurotoxin pentylenetetrazole (PTZ). As an experimental model, the zebrafish (Danio rerio) was used to study the effect of the compounds on acetylcholinesterase activity (AChE) in larvae at 5 days post-fertilization (dpf).
Zebrafish embryos were seeded in 50 ml of dilution water (AD) in a Petri dish and grown to 5 dpf (larval stage). […] Next, the larvae were transferred using a Pasteur pipette to a 24-well microplate, so that each well contained five larvae, making ten replicates per condition. First, the pre-treatment of the 5 dpf larvae was performed. For this, the larvae were incubated at 26±1° C. for 1 hour in a volume of 2 ml of AD for the two control groups (Control and Control+PTZ), of physostigmine (Phys) 20 μM, which is a commercial inhibitor of the enzyme AChE for the Phys group, and of the test compounds at a concentration of 10 μM. A medium exchange was then carried out, and the larvae were incubated with the compounds in combination with 5 mM PTZ for 6 hours at 26±1° C. After this incubation period, all of the larvae were examined, and it was determined that the general state of the larvae was totally normal, without any visible anomaly or anomalous behavior. Finally, the larvae were processed for the analysis of the AChE activity.
In order to determine the AChE levels, larvae processing was carried out according to the established technical study protocol once the experimental period was completed. The larvae were homogenized mechanically, and the samples were centrifuged to obtain the supernatant, which were used to determine the levels of the AChE enzyme as a function of the treatments administered. In addition, the determination of total protein of each experimental group was carried out according to the established technical study protocol. Finally, the AChE levels determined in the control group were taken as a reference measurement and deemed to be 100%.

RAW 264.7 macrophages = experiment: Inflammation assay: RAW macrophage viability after LPS (MTT); type: cell-based; details: 10 μM, LPS 100 ng/ml, 24 h, 1% DMSO
Experimental: RAW 264.7 macrophages were cultured in P75 with high-glucose DMEM supplemented with penicillin/streptomycin and 10% inactivated fetal bovine serum.
The cell viability assays with RAW macrophages were prepared in 96-well plates by seeding 25,000 cells/well in a volume of 100 μL and incubating the cells for 4 h before the addition of the compounds. The compounds to be tested were dissolved in DMSO and added in three different concentrations (1, 10, and 100 μM) in order to determine their toxicity. The final percentage of DMSO in each well was adjusted to 1%. The cell viability was evaluated 24 h after the addition of the compounds by means of the MTT assay according to the manufacturer's method. Mean values and standard deviations were calculated from at least eight different measurements from several independent experiments.
For the testing of mitigation of damage caused by the addition of LPS, the RAW 264.7 macrophages were cultured according to the procedure described above. […] The cell viability was evaluated 24 h after the addition of the compounds by means of the MTT assay according to the manufacturer's method. Mean values and standard deviations were calculated from at least eight different measurements from several independent experiments.

NO = NO (nitrite, Griess reagent) in supernatant of LPS-stimulated RAW macrophages; type: cell-based; details: 10 μM, 24 h
Experimental: (§1) To determine the production of cytokines, 5×10^5 RAW 264.7 macrophages were seeded in 24-well plates (0.5 ml per well). The compounds to be tested were then added (10 μM), and the macrophages were either stimulated or not through the addition of LPS (1 μg/ml) to the culture medium. After 24 hours, the levels of IL-6 and TNF-α were measured in the supernatants by ELISA using the capture and biotinylated antibodies from BD PharMingen and PrepoTech following known protocols. The levels of NO in the supernatants at 24 hours were measured indirectly by determining the nitrite concentration in the medium using the Griess reagent according to established protocol. A minimum of two independent experiments and three replicates per experiment were performed for each measured value. The values are expressed as the mean±standard deviation.
(§2) In the previous assay, the levels of various inflammation parameters were measured (TNF-α, NO, and IL-6) by ELISA after treatment with RES or with some of the compounds of the invention (2, 3, 5, 6, 8, and 9).

IL-6 = IL-6 in supernatant of LPS-stimulated RAW macrophages (ELISA); type: cell-based; details: 10 μM, 24 h
Experimental: as §1, §2

[1] = tested on: SH-SY5Y neuroblastoma cell line; experiment: Neuroprotection assay: SH-SY5Y viability after H2O2 damage (MTT); type: cell-based; details: 10 μM, H2O2 100 μM, 24 h, 1% DMSO
Experimental: The SH-SY5Y neuroblastoma cell line was cultured in petri dishes pre-treated with collagen (100 ng/ml) with F12 medium supplemented with penicillin/streptomycin and 10% inactivated fetal bovine serum.
Cell viability assays with neurons were prepared in 96-well plates pre-treated with collagen by seeding 20,000 cells/well in a volume of 100 μL and incubating the cells for 24 h before the addition of the compounds. The compounds to be tested were dissolved in DMSO and added in three different concentrations (1, 10, and 100 μM) in order to determine their toxicity. The final percentage of DMSO in each well was adjusted to 1%. The cell viability was evaluated 24 h after the addition of the compounds by means of the MTT assay according to the manufacturer's method. Mean values and standard deviations were calculated from at least eight different measurements from several independent experiments.
For the neuroprotection assay, the neurons were cultured and seeded in the same manner as for the cell viability assay. […] The cell viability was evaluated 24 h after the addition of the compounds by means of the MTT assay according to the manufacturer's method. Mean values and standard deviations were calculated from at least eight different measurements from several independent experiments. […]

[2] = tested on: mouse model of multiple sclerosis; experiment: Experimental allergic encephalomyelitis (EAE) mouse model of multiple sclerosis; type: in vivo; details: for motor capacity: preventive regimen, 20 mg/kg intraperitoneal twice a week for 3 weeks from day 5 after induction; for clinical classification of the motor capacity: 20 mg/kg intraperitoneal twice a week for 2 weeks from day 12 after induction, especially days 20-30
Experimental: Compound 15 was investigated as a possible treatment in a mouse model of multiple sclerosis. The compound resveratrol (RES) was added as a reference. An experimental allergic encephalomyelitis model, EAE, was used as an animal model of multiple sclerosis.
In this model, mice are injected with myelin oligodendrocyte glycoprotein (MOG, MOG35-55, is the 21 amino acid peptide corresponding to the sequence from positions 35 to 55 of the MOG glycoprotein) and virus pertussis (pertussis toxin, PTX) in order to induce the disease. Two days after induction, a new dose of the virus was given again, because some mice were not developing symptoms of EAE. Once the damage was caused, the mice were treated with RES, compound 15, or vehicle, and we studied the effect thereof on the mouse on the basis of different motor parameters on a scale from 0 normal to 4 incapable.
• Vehicle without tween-80 emulsifier (control EAE without T) • Vehicle with tween-80 emulsifier (EAE-T control) • Preventive RES (without tween-80 emulsifier) (RES-PREV) • Therapeutic RES (no tween-80 emulsifier) (RES-TERAP) • Preventive compound 15 (with tween-80 emulsifier) (compound 15-PREV) • Therapeutic compound 15 (with tween-80 emulsifier) (compound 15-TERAP)
(§3) The (intraperitoneal) administration of the compounds (resveratrol, compound 15, and vehicle, with or without tween-80) is started 5 days after induction. 250 μL of the compound in question (20 mg/kg) were injected twice a week and the treatment was maintained for 3 weeks. The treatment was then stopped, but the state of the mice was monitored for another 3 weeks (47 days total).
as §3, with “started 12” for “started 5”, “for 2” for “for 3”

[3] = tested on: mouse model of Huntington's disease; experiment: 3-nitro-propionic acid (3NP) mouse model of Huntington's disease; type: in vivo; details: 3NP mice
Experimental: Compound 15 was investigated as a possible treatment in a mouse model of Huntington's disease. The compound resveratrol (RES) was added as a reference.
In this model, increasing amounts of 3-nitro-propionic acid (3NP) are injected into the mice, causing lesions with a phenotype very similar to that of Huntington's disease, both mechanically and pathologically. Once the damage was caused, the mice were treated with RES, compound 15, or vehicle, and we studied the effect thereof on the mouse on the basis of different parameters. Behavioral studies (rotarod test), an assessment was made of motor capacity (tabulated on a scale of 0 normal to 4 incapable, in several parameters such as general mouse dystonia, ability to flip over, and the ability to explore), weight was monitored, and subsequent measurements were taken such as of the inhibition of pro-inflammatory cytokines in plasma or brain.
The design of the experiment is shown in FIG. 16. #=Behavioral study and rotarod test; ϕ Administration of the compound; W=weeks of age of the mice; D=Day of the experiment.

TNF-α = TNF-α in supernatant of LPS-stimulated RAW macrophages (ELISA); type: cell-based; details: 10 μM, 24 h
Experimental: as §1, §2

## Oc1ccc(C=Cc2cc(O)cc(O)c2)cc1 [RES, resveratrol]
Zebrafish (Danio rerio)
  AChE activity relative to control (neuroprotective effect): lower neuroprotective effect
RAW 264.7 macrophages
  cell viability recovered: up to 62%
NO
  NO level in culture medium: significantly decreases
IL-6
  IL-6 level in culture medium: significantly decreases
[1]
  cell viability recovered: up to 50%
[2]
  motor capacity: does reduce damage on a motor level
[2]; therapeutic regimen
  clinical classification of the motor capacity: do not appear to improve
[3]
  improvement of the phenotype caused by 3NP, compared with compound 15: differences between compound 15 and RES are not great
TNF-α
  TNF-α level in culture medium: significantly decreases

## CC[Si](CC)(CC)Oc1ccc(/C=C/c2cc(O)cc(O[Si](CC)(CC)CC)c2)cc1 [compound 8]
Zebrafish (Danio rerio)
  AChE activity relative to control (neuroprotective effect): lower neuroprotective effect similar to that observed for resveratrol

## CC[Si](CC)(CC)Oc1cc(/C=C/c2ccc(O)cc2)cc(O[Si](CC)(CC)CC)c1 [compound 9]
Zebrafish (Danio rerio)
  AChE activity relative to control (neuroprotective effect): significantly prevent the decrease in AChE activity induced by PTZ

## CCCCCCCC(=O)OCC1OC(Oc2cc(/C=C/c3ccc(O[Si](C(C)C)(C(C)C)C(C)C)cc3)cc(O[Si](C(C)C)(C(C)C)C(C)C)c2)C(O)C(O)C1O (stereo not drawn) [compound 14, 3,4′-O-ditriisopropylsilyl-5-(-6-octanoyl)glucosyl resveratrol]
Zebrafish (Danio rerio)
  AChE activity relative to control (neuroprotective effect): lower neuroprotective effect similar to that observed for resveratrol

## CCCCCCCC(=O)OCC1OC(Oc2ccc(/C=C/c3cc(O[Si](C(C)C)(C(C)C)C(C)C)cc(O[Si](C(C)C)(C(C)C)C(C)C)c3)cc2)C(O)C(O)C1O (stereo not drawn) [compound 15, 3,5-O-ditriisopropylsilyl-4′-(6-octanoyl)glucosyl resveratrol]
Zebrafish (Danio rerio)
  AChE activity relative to control (neuroprotective effect): significantly prevent the decrease in AChE activity induced by PTZ
[2]; 20 mg/kg each, dose of RES in μmol/kg about 3× dose of compound 15
  effectiveness relative to RES on a molar dose basis: much more effective
[2]
  motor capacity: does not have a great effect on motor capacity
[2]; therapeutic regimen
  clinical classification of the motor capacity: improves the clinical classification of the motor capacity of the mice compared to the control
[2]; therapeutic regimen, days 30-47, administration interrupted
  clinical classification of the motor capacity after end of administration: improvement in the clinical classification was maintained
[3]
  severity of the motor lesions (motor capacity): decreasing the severity of the motor lesions
  weight of the animals: increasing the weight of the animals
[3]; plasma
  levels of pro-inflammatory cytokines such as IL-6: decreasing

## CCCC(=O)Oc1ccc(/C=C/c2cc(O[Si](CC)(CC)CC)cc(O[Si](CC)(CC)CC)c2)cc1 [compound 17, 3,5-O-triethylsilyl-4′-butanoyl resveratrol]
Zebrafish (Danio rerio)
  AChE activity relative to control (neuroprotective effect): lower neuroprotective effect similar to that observed for resveratrol
